Data: patent US20230348442A1, “GALECTIN-3 INHIBITING 2-HYDROXYCYCLOALKANE-1-CARBAMOYL DERIVATIVES” (Idorsia Pharmaceuticals Ltd, priority 2020, published 2023)

Biological target: human Gal-3 (hGal-3) (Homo sapiens (Human), UniProt P17931)
Assay: competitive binding assay: binding of biotinylated hGal-3 to microplate-adsorbed asialofetuin (ASF), spectrophotometric
Conditions: Activity on hGal-3; mean values of several measurements
Summary of the method: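 Biotin-hGal-3/hGal-1 300-1000 ng/mL + cpd (DMSO dilutions) on ASF-coated plate, 3 h 4° C; wash; SA-HRP 80 ng/mL 1 h 4° C; wash; ABTS. IC50 = mean of several runs. hGal-1 preferably Cys→Ser (all six) mutant.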

Sequence of human Gal-3 (hGal-3) (P17931 whole entry): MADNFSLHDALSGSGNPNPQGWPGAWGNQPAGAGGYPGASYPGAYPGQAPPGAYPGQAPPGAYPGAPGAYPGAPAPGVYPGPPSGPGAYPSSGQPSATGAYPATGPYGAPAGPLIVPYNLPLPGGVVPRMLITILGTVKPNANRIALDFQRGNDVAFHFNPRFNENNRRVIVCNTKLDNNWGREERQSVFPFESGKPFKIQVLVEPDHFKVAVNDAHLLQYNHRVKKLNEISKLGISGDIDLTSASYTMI

Row | Molecule | IC50 [nM]
1 | CO[C@@H]1[C@@H](n2cc(-c3ccc(C)c(F)c3)nn2)[C@@H](O)[C@@H](CO)O[C@H]1C(=O)N(c1cc(C)cc(C#N)c1)[C@@H]1CCC[C@H]1O [Example 1.13.8R, (2R,3R,4S,5R,6R)-N-(3-cyano-5-methylphenyl)-4-(4-(3-fluoro-4-methylphenyl)-1H-1,2,3-triazol-1-yl)-5-hydroxy-N-((1R,2R)-2-hydroxycyclopentyl)-6-(hydroxymethyl)-3-methoxytetrahydro-2H-pyran-2-carboxamide] | 206
2 | CO[C@@H]1[C@@H](n2cc(-c3cc(F)c(F)c(F)c3)nn2)[C@@H](O)[C@@H](CO)O[C@H]1C(=O)N(c1cccc(Cl)c1)[C@@H]1CC[C@H]1O [Example 2.1.1R, (2R,3R,4S,5R,6R)-N-(3-chlorophenyl)-5-hydroxy-N-((1R,2R)-2-hydroxycyclobutyl)-6-(hydroxymethyl)-3-methoxy-4-(4-(3,4,5-trifluorophenyl)-1H-1,2,3-triazol-1-yl)tetrahydro-2H-pyran-2-carboxamide] | 4400
3 | CO[C@@H]1[C@@H](n2cc(-c3cc(F)c(Cl)c(Cl)c3)nn2)[C@@H](O)[C@@H](CO)O[C@H]1C(=O)N(c1cc(Br)cc(C#N)c1)[C@@H]1CC[C@H]1O [Example 2.17.5R, (2R,3R,4S,5R,6R)-N-(3-bromo-5-cyanophenyl)-4-(4-(3,4-dichloro-5-fluorophenyl)-1H-1,2,3-triazol-1-yl)-5-hydroxy-N-((1R,2R)-2-hydroxycyclobutyl)-6-(hydroxymethyl)-3-methoxytetrahydro-2H-pyran-2-carboxamide] | 254
4 | CO[C@@H]1[C@@H](n2cc(-c3cc(F)c(F)c(F)c3)nn2)[C@@H](O)[C@@H](CO)O[C@H]1C(=O)N(c1cc(Br)cc(Br)c1)[C@@H]1CCC[C@H]1O [Example 1.1.11R, (2R,3R,4S,5R,6R)-N-(3,5-dibromophenyl)-5-hydroxy-N-((1R,2R)-2-hydroxycyclopentyl)-6-(hydroxymethyl)-3-methoxy-4-(4-(3,4,5-trifluorophenyl)-1H-1,2,3-triazol-1-yl)tetrahydro-2H-pyran-2-carboxamide] | 390
5 | CO[C@@H]1[C@@H](n2cc(-c3cc(F)c(Br)c(F)c3)nn2)[C@@H](O)[C@@H](CO)O[C@H]1C(=O)N(c1cc(Cl)cc(C#N)c1)[C@@H]1CCC[C@H]1O [Example 1.6.4R, (2R,3R,4S,5R,6R)-4-(4-(4-bromo-3,5-difluorophenyl)-1H-1,2,3-triazol-1-yl)-N-(3-chloro-5-cyanophenyl)-5-hydroxy-N-((1R,2R)-2-hydroxycyclopentyl)-6-(hydroxymethyl)-3-methoxytetrahydro-2H-pyran-2-carboxamide] | 214
6 | CO[C@@H]1[C@@H](n2cc(-c3cc(F)c(Cl)c(Cl)c3)nn2)[C@@H](O)[C@@H](CO)O[C@H]1C(=O)N(c1cc(Cl)cc(C#N)c1)[C@@H]1CC[C@H]1O [Example 2.17.4R, (2R,3R,4S,5R,6R)-N-(3-chloro-5-cyanophenyl)-4-(4-(3,4-dichloro-5-fluorophenyl)-1H-1,2,3-triazol-1-yl)-5-hydroxy-N-((1R,2R)-2-hydroxycyclobutyl)-6-(hydroxymethyl)-3-methoxytetrahydro-2H-pyran-2-carboxamide] | 224
7 | CO[C@@H]1[C@@H](n2cc(-c3cc(F)c(F)c(F)c3)nn2)[C@@H](O)[C@@H](CO)O[C@H]1C(=O)N(c1cc(C)cc(Cl)c1)[C@H]1CC[C@@H]1O [Example 2.1.3, (2R,3R,4S,5R,6R)-N-(3-chloro-5-methylphenyl)-5-hydroxy-N-((1S,2S)-2-hydroxycyclobutyl)-6-(hydroxymethyl)-3-methoxy-4-(4-(3,4,5-trifluorophenyl)-1H-1,2,3-triazol-1-yl)tetrahydro-2H-pyran-2-carboxamide] | 118
8 | COc1cc(C#N)cc(N(C(=O)[C@@H]2O[C@H](CO)[C@H](O)[C@H](n3cc(-c4ccc(C#N)c(F)c4)nn3)[C@H]2OC)[C@H]2CCC[C@@H]2O)c1 [Example 1.16.9, (2R,3R,4S,5R,6R)-4-(4-(4-cyano-3-fluorophenyl)-1H-1,2,3-triazol-1-yl)-N-(3-cyano-5-methoxyphenyl)-5-hydroxy-N-((1S,2S)-2-hydroxycyclopentyl)-6-(hydroxymethyl)-3-methoxytetrahydro-2H-pyran-2-carboxamide] | 256
9 | CO[C@@H]1[C@@H](n2cc(-c3ccc(Br)c(F)c3F)nn2)[C@@H](O)[C@@H](CO)O[C@H]1C(=O)N(c1cc(Cl)cc(C#N)c1)[C@@H]1CC[C@H]1O [Example 2.12.4R, (2R,3R,4S,5R,6R)-4-(4-(4-bromo-2,3-difluorophenyl)-1H-1,2,3-triazol-1-yl)-N-(3-chloro-5-cyanophenyl)-5-hydroxy-N-((1R,2R)-2-hydroxycyclobutyl)-6-(hydroxymethyl)-3-methoxytetrahydro-2H-pyran-2-carboxamide] | 135

The next molecules have a lower IC50 than those just listed; values first:

Row | IC50 [nM] | Molecule
10 | 100 | CO[C@@H]1[C@@H](n2cc(-c3ccc(Br)c(F)c3F)nn2)[C@@H](O)[C@@H](CO)O[C@H]1C(=O)N(c1cc(Cl)cc(Cl)c1)[C@@H]1CC[C@H]1O [Example 2.12.2R, (2R,3R,4S,5R,6R)-4-(4-(4-bromo-2,3-difluorophenyl)-1H-1,2,3-triazol-1-yl)-N-(3,5-dichlorophenyl)-5-hydroxy-N-((1R,2R)-2-hydroxycyclobutyl)-6-(hydroxymethyl)-3-methoxytetrahydro-2H-pyran-2-carboxamide]
11 | 29.4 | (2R,3R,4S,5R,6R)-N-(3,5-dichlorophenyl)-3,5-dihydroxy-N-((1S,2S)-2-hydroxycyclopentyl)-6-(hydroxymethyl)-4-(4-(3,4,5-trifluorophenyl)-1H-1,2,3-triazol-1-yl)tetrahydro-2H-pyran-2-carboxamide [Example 1H.1.2]
12 | 28.9 | N#Cc1cc(Cl)cc(N(C(=O)[C@@H]2O[C@H](CO)[C@H](O)[C@H](n3cc(-c4cc(F)c(F)c(F)c4)nn3)[C@H]2O)[C@H]2CCC[C@@H]2O)c1 [Example 1H.1.4, (2R,3R,4S,5R,6R)-N-(3-chloro-5-cyanophenyl)-3,5-dihydroxy-N-((1S,2S)-2-hydroxycyclopentyl)-6-(hydroxymethyl)-4-(4-(3,4,5-trifluorophenyl)-1H-1,2,3-triazol-1-yl)tetrahydro-2H-pyran-2-carboxamide]
13 | 17.1 | CO[C@@H]1[C@@H](n2cc(-c3ccc(C)c(F)c3F)nn2)[C@@H](O)[C@@H](CO)O[C@H]1C(=O)N(c1cc(Br)cc(C#N)c1)[C@H]1CC[C@@H]1O [Example 2.11.5, (2R,3R,4S,5R,6R)-N-(3-bromo-5-cyanophenyl)-4-(4-(2,3-difluoro-4-methylphenyl)-1H-1,2,3-triazol-1-yl)-5-hydroxy-N-((1S,2S)-2-hydroxycyclobutyl)-6-(hydroxymethyl)-3-methoxytetrahydro-2H-pyran-2-carboxamide]
14 | 33.4 | CO[C@@H]1[C@@H](n2cc(-c3cc(F)c(F)c(Cl)c3)nn2)[C@@H](O)[C@@H](CO)O[C@H]1C(=O)N(c1cc(Cl)cc(C#N)c1)[C@H]1CCC[C@@H]1O [Example 1.7.4, (2R,3R,4S,5R,6R)-4-(4-(3-chloro-4,5-difluorophenyl)-1H-1,2,3-triazol-1-yl)-N-(3-chloro-5-cyanophenyl)-5-hydroxy-N-((1S,2S)-2-hydroxycyclopentyl)-6-(hydroxymethyl)-3-methoxytetrahydro-2H-pyran-2-carboxamide]
15 | 45 | CO[C@@H]1[C@@H](n2cc(-c3ccc(Br)c(F)c3F)nn2)[C@@H](O)[C@@H](CO)O[C@H]1C(=O)N(c1cc(Cl)cc(C#N)c1)[C@H]1CC[C@@H]1O [Example 2.12.4, (2R,3R,4S,5R,6R)-4-(4-(4-bromo-2,3-difluorophenyl)-1H-1,2,3-triazol-1-yl)-N-(3-chloro-5-cyanophenyl)-5-hydroxy-N-((1S,2S)-2-hydroxycyclobutyl)-6-(hydroxymethyl)-3-methoxytetrahydro-2H-pyran-2-carboxamide]
16 | 78.5 | CO[C@@H]1[C@@H](n2cc(-c3ccc(Br)c(F)c3F)nn2)[C@@H](O)[C@@H](CO)O[C@H]1C(=O)N(c1cc(Br)cc(C#N)c1)[C@@H]1CC[C@H]1O [Example 2.12.5R, (2R,3R,4S,5R,6R)-4-(4-(4-bromo-2,3-difluorophenyl)-1H-1,2,3-triazol-1-yl)-N-(3-bromo-5-cyanophenyl)-5-hydroxy-N-((1R,2R)-2-hydroxycyclobutyl)-6-(hydroxymethyl)-3-methoxytetrahydro-2H-pyran-2-carboxamide]
17 | 72.5 | CO[C@@H]1[C@@H](n2cc(-c3cc(F)c(F)c(F)c3)nn2)[C@@H](O)[C@@H](CO)O[C@H]1C(=O)N(c1cc(Br)cc(Br)c1)[C@H]1CC[C@@H]1O [Example 2.1.11, (2R,3R,4S,5R,6R)-N-(3,5-dibromophenyl)-5-hydroxy-N-((1S,2S)-2-hydroxycyclobutyl)-6-(hydroxymethyl)-3-methoxy-4-(4-(3,4,5-trifluorophenyl)-1H-1,2,3-triazol-1-yl)tetrahydro-2H-pyran-2-carboxamide]
18 | 44.8 | CO[C@@H]1[C@@H](n2cc(-c3cc(F)c(C)c(F)c3)nn2)[C@@H](O)[C@@H](CO)O[C@H]1C(=O)N(c1cc(Cl)cc(Cl)c1)[C@H]1CCC[C@@H]1O [Example 1.4.2, (2R,3R,4S,5R,6R)-N-(3,5-dichlorophenyl)-4-(4-(3,5-difluoro-4-methylphenyl)-1H-1,2,3-triazol-1-yl)-5-hydroxy-N-((1S,2S)-2-hydroxycyclopentyl)-6-(hydroxymethyl)-3-methoxytetrahydro-2H-pyran-2-carboxamide]
19 | 80.6 | CC(=O)O[C@@H]1[C@@H](n2cc(-c3cc(F)c(F)c(F)c3)nn2)[C@@H](O)[C@@H](CO)O[C@H]1C(=O)N(c1cc(Cl)cc(C#N)c1)[C@@H]1CC[C@H]1O [Example 2A.1.4R, (2R,3R,4S,5R,6R)-2-((3-chloro-5-cyanophenyl)((1R,2R)-2-hydroxycyclobutyl)carbamoyl)-5-hydroxy-6-(hydroxymethyl)-4-(4-(3,4,5-trifluorophenyl)-1H-1,2,3-triazol-1-yl)tetrahydro-2H-pyran-3-yl acetate]
